Data taken from patent publication US20130165455A1, “TLR AGONISTS” (The Regents of The University of California, priority 2005, published 2013).

Test system: C57BL/6 mice
Assay: Serum cytokine levels in C57BL/6 mice after i.v. injection (Luminex)
Format: in vivo
Conditions: 0.1 micromole SM-360320 or equivalent amount UC-1V150/MSA (500 μg MSA per mouse), FIG. 5
Experimental: FIGS. 5A, 5B, 5C, and 5D illustrate the increased potency and duration of effect of UC-1V150/MSA. C57BL/6 mice were injected (i.v.) with (A) 0.1 micromole of SM-360320, a TLR7 ligand, or (B) equivalent amount of a TLR7 agonist UC-1V150 (aldehyde-modified SM-360320) or UC-1V150/MSA to 500 μg MSA per mouse. Serum samples were collected at the indicated time points and cytokine levels were analyzed by Luminex. MSA=mouse serum albumin. The effect from the original TLR7 ligand, SM-360320, lasted for only 2 hours whereas UC-1V150/MSA has extended the effect to at least 6 hours.
FIGS. 7A and 7B illustrates an increased potency of UC-1V150/MSA. C57BL/6 mice were i.v. injected with 380 nmole of SM-360320 or UC-1V150, or 500 μg of UC-1V150/MSA (equivalent to 3.8 nmole UC-1V150) per mouse. Serum samples were collected after 2 h and cytokine levels were analyzed by Luminex. To achieve the similar effect, at least 100-fold higher concentration of either UC-1V150 or SM-360320 was required as compared to that of UC-1V150/MSA.

In the case of `COCCOc1nc(N)c2[nH]c(=O)n(Cc3ccccc3)c2n1` [SM-360320], the “duration of effect (serum cytokine levels)” value is reported as 2 h.
